The results in this text go back to US11230535B2, “CFTR regulators and methods of use thereof” (THE REGENTS OF THE UNIVERSITY OF CALIFORNIA, priority 2015, dated 2022).

SMILES strings stand for the structures. Entries after “also recorded” stand apart in the source; their conditions may differ. A value given as a limit tells only on which side of the number the result lay.

In one data set the test system is mouse liver microsomes. Kind of data set: In vitro metabolic stability in mouse liver microsomes. The format is in vitro ADME. Here is the method: CFTRact-J027 (5 μM) was incubated for specified times at 37° C. with mouse liver microsomes (1 mg protein/ml; Sigma-Aldrich) in potassium phosphate buffer (100 mM) containing 1 mM NADPH, as described. The mixture was then chilled on ice, and 0.5 ml of ice-cold ethyl acetate was added. Samples were centrifuged for 15 min at 3000 rpm, the supernatant evaporated to dryness, and the residue was dissolved in 100 μL mobile phase (acetonitrile:water, 3:1) for LC/MS and assayed as described above.
In vitro metabolic stability. CFTRact-J027 (5 μM) was incubated for specified times at 37° C. with mouse liver microsomes (1 mg protein/ml; Sigma-Aldrich) in potassium phosphate buffer (100 mM) containing 1 mM NADPH, as described. The mixture was then chilled on ice, and 0.5 ml of ice-cold ethyl acetate was added. Samples were centrifuged for 15 min at 3000 rpm, the supernatant evaporated to dryness, and the residue was dissolved in 100 μL mobile phase (acetonitrile:water, 3:1) for LC/MS and assayed as described above.

Data set [1] has as its system isolated mouse ileum and colon strips. Kind of data set: Ex vivo contractility of isolated ileum and colon strips. The note with it: alone or with 10 μM loperamide. Here is the method: Whole-gut transit time was determined using an orally administered marker (200 μL, 5% Evans Blue, 5% gum Arabic) and measuring the time of its appearance in stool. Mice were administered loperamide and CFTRact-J027 (10 mg/kg) or vehicle intraperitoneally at zero time. For ex vivo contractility measurements, mice were euthanized by avertin overdose (200 mg/kg, 2,2,2-tribromethanol, Sigma-Aldrich) and ileum and colon segments of ˜2 cm length were isolated and washed with Krebs-Henseleit buffer. The ends of the intestinal segments were tied, connected to a force transducer (Biopac Systems, Goleta, Calif., USA) and tissues were transferred to an organ chamber (Biopac Systems) containing Krebs-Henseleit buffer at 37° C. aerated with 95% O2, 5% CO2. Ileum and colon were stabilized for 60 min with resting tensions of 0.5 and 0.2 g respectively, and solutions were changed every 15 min. Effects of CFTRact-J027 on baseline and loperamide-suppressed isometric intestinal contractions were recorded.
In vivo intestinal transit and ex vivo intestinal contractility. Whole-gut transit time was determined using an orally administered marker (200 μL, 5% Evans Blue, 5% gum Arabic) and measuring the time of its appearance in stool. […] Effects of CFTRact-J027 on baseline and loperamide-suppressed isometric intestinal contractions were recorded.

Data set [2] concerns closed mid-jejunal loops of cystic fibrosis mice. Description: In vivo intestinal fluid absorption in closed mid-jejunal loops of CF mice. The arrangement: species or system mouse. The following applies: 30 min. Here is the method:
Mice (wildtype or CF) were given access to 5% dextrose water but not solid food for 24 h before experiments. Mice were anesthetized with isoflurane and body temperature was maintained during surgery at 36-38° C. using a heating pad. A small abdominal incision was made to expose the small intestine, and closed mid-jejunal loops (length 2-3 cm) were isolated by sutures. Loops were injected with 100 μL vehicle alone or 100 μg CFTRact-J027 in vehicle. The abdominal incision was closed with sutures, and mice were allowed to recover from anesthesia. Intestinal loops were removed at 90 min and loop length and weight were measured to quantify fluid secretion. Intestinal absorption was measured in CF mice (to prevent secretion) as described above, except that the loops were removed at 0 or 30 min. Absorption was calculated as 1−(loop weight at 0 min−loop weight at 30 min)/loop weight at 0 min.
In vivo intestinal secretion and absorption. Mice (wildtype or CF) were given access to 5% dextrose water but not solid food for 24 h before experiments. […] Intestinal loops were removed at 90 min and loop length and weight were measured to quantify fluid secretion. Intestinal absorption was measured in CF mice (to prevent secretion) as described above, except that the loops were removed at 0 or 30 min. Absorption was calculated as 1−(loop weight at 0 min−loop weight at 30 min)/loop weight at 0 min.

Data set [3] is described as follows: Pharmacokinetics in mice (plasma LC/MS). The format is in vivo, mouse. As for the experimental part:
(§1) All animal experiments were approved by UCSF Institutional Animal Care and Use Committee. Female CD1 mice were treated with 10 mg/kg CFTRact-J027 (saline containing 5% DMSO and 10% Kolliphor HS 15) either intraperitoneally (ip) or orally. Blood was collected at 15, 30, 60, 150, 240 and 360 min after treatment by orbital puncture and centrifuged at 5000 rpm for 15 min to separate plasma. Plasma samples (60 μL) were mixed with 300 μL acetonitrile and centrifuged at 13000 rpm for 20 min, and 90 μL of the supernatant was used for LC/MS. The solvent system consisted of a linear gradient from 5 to 95% acetonitrile over 16 min (0.2 ml/min flow). Mass spectra was acquired on a mass spectrometer (Waters 2695 and Micromass ZQ) using electrospray (+) ionization, mass ranging from 100 to 1500 Da, cone voltage 40 V. Calibration standards were prepared in plasma from untreated mice to which known amounts of CFTRact-J027 were added.
as §1, with “Pharmacokinetics. All” for “All”

In the case of `Nc1ccc([N+](=O)[O-])cc1-c1nc2ccccc2n(Cc2ccccc2)c1=O` [CFTRact-J027, 3-(2-amino-5-nitrophenyl)-1-benzylquinoxalin-2(1H)-one], the “elimination half-life in microsomes” value in the data set on mouse liver microsomes (5 μM, mouse liver microsomes, NADPH) is listed as about 21 min. Besides, the “original compound remaining at 60 min” value in the data set on mouse liver microsomes (60 min) was determined as 7%. Moreover, in the data set on mouse liver microsomes (mouse liver microsomes, NADPH), the “hepatic microsomal metabolism, in words” value is “rapid hepatic metabolism; also recorded: rapidly metabolized”. For the same molecule, the intestinal contraction result in data set [1] is given as “no effect”. Besides, the intestinal fluid absorption result in data set [2] is “did not affect intestinal fluid absorption”. In addition, the serum elimination half-life in data set [3] (10 mg/kg ip) is reported as about 16 min. Besides, in data set [3] (10 mg/kg ip, 150 min), the “serum concentration at 150 min” value is “undetectable”. In data set [3] (10 mg/kg oral), the “bioavailability, in words” value was “very low bioavailability; also recorded: minimal bioavailability”; the blood levels is recorded as under 200 nM; the “serum concentration at other time points” value is given as “undetectable”. In addition, the “serum concentration at 30 min” value in data set [3] (10 mg/kg oral, 30 min) stood at 180 nM.
